According to patent publication US10279053B2, “Microbubble compositions, method of making same, and method using same” (NuvOx Pharma LLC, priority 2011, dated 2019):

Experiments:
[1] = standard pressure of about 760 mm Hg; cited from earlier work
[2] = Boiling point / liquid-gas phase transition temperature of core gases; type: physicochemical; conditions: interstitial pressure of 795 mm Hg; gas law approximation
From the text: Applicant's gaseous precursors include, for example, fluorinated carbons, perfluorocarbons, sulfur hexafluoride, perfluoro ethers and combinations thereof. As the stilled artisan will appreciate, a particular fluorinated compound, such as sulfur hexafluoride, a perfluorocarbon or a perfluoro ether, may exist in the liquid state when the compositions are first made, and are thus used as a gaseous precursor. Whether the fluorinated compound is a liquid generally depends on its liquid/gas phase transition temperature, or boiling point. For example, a preferred perfluorocarbon, perfluoropentane, has a liquid/gas phase transition temperature (boiling point) of 29.5° C. This means that perfluoropentane is generally a liquid at room temperature (about 25° C.), but is converted to a gas within the human body, the normal temperature of which is about 37° C., which is above the transition temperature of perfluoropentane. Thus, under normal circumstances, perfluoropentane is a gaseous precursor. As known to one skilled in the art, the effective boiling point of a substance may be related to the pressure to which that substance is exposed. This relationship is exemplified by the ideal gas law: PV=nRT, where P is pressure, V is volume, n is moles of substance, R is the gas constant, and T is temperature. […] Conversely, as pressure decreases, the effective boiling point decreases. […]

boiling point at interstitial pressure [2]: about 30.5 °C
Structure (SMILES): FC(F)(F)C(F)(F)C(F)(F)C(F)(F)C(F)(F)F [Perfluoropentane]
liquid/gas phase transition temperature (boiling point) [1]: 29.5 °C
